Patent publication US8748426B2, “Inhibitors of diacylglycerol acyl transferase” (Piramal Enterprises Limited, priority 2009, dated 2014)

Target: T1, hDGAT1 (Homo sapiens, UniProt O75907)
T1 sequence (O75907 1-488): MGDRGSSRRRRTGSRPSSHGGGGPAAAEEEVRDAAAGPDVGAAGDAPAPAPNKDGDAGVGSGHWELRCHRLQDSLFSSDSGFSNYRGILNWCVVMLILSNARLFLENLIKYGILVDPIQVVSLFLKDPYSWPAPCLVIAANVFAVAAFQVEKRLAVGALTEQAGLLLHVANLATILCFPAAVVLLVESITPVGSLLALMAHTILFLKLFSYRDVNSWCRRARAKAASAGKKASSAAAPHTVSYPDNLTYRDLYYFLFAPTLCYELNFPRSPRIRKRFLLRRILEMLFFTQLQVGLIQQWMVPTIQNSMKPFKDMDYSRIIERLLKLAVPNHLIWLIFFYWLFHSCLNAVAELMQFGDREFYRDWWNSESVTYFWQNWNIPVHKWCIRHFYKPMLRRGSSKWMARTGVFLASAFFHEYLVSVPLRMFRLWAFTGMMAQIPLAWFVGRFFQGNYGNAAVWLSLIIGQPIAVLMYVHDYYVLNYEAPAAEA
Assay: In-vitro DGAT1 assay (14C oleoyl CoA, hDGAT1 microsomes from Sf9 cells)
Conditions: at 1 μM

Structure (SMILES)	% Inhibition of hDGAT1
O=C(Nc1ccc(-c2ccc3c(c2)C(=O)N([C@H]2CC[C@H](C(=O)O)CC2)C3)cc1)c1cccc(Cl)c1 [Example 559, (1r,4r)-4-(6-(4-(3-Chlorobenzamido)phenyl)-1-oxoisoindolin-2-yl)cyclohexane carboxylic acid]	++ (>50% Inhibition)
O=C(Nc1ccc(-c2ccc3c(c2)C(=O)N(C2CCCC(C(=O)O)C2)C3)cc1)c1ccc(-c2ccccc2)cc1 (stereo not shown) [Example 545, 3-(6-(4-([1,1′-Biphenyl]-4-ylcarboxamido)phenyl)-1-oxoisoindolin-2-yl)cyclo hexane carboxylic acid]	++ (>50% Inhibition)

Same assay, conditions: read-out: % Inhibition of hDGAT1

Structure (SMILES)	inhibition at 1 µM [%]
CC(C)[C@@H](C(=O)O)N1Cc2ccc(-c3ccc(NC(=O)Nc4ccc(F)cc4)cc3)cc2C1=O [Example 8, (S)-2-(6-(4-(3-(4-Fluorophenyl)ureido)phenyl)-1-oxoisoindolin-2-yl)-3-methyl butanoic acid]	10 to 50
CC(C)[C@@H](C(=O)O)N1Cc2ccc(-c3ccc(NC(=O)Nc4ccc(Cl)cc4Oc4ccccc4)cc3)cc2C1=O [Example 44, (S)-2-(6-(4-(3-(4-Chloro-2-phenoxyphenyl)ureido)phenyl)-1-oxoisoindolin-2-yl)-3-methylbutanoic acid]	> 50
CC(C)[C@@H](C(=O)O)N1Cc2ccc(-c3ccc(NC(=O)Nc4ccccc4F)cc3)cc2C1=O [Example 12, (S)-2-(6-(4-(3-(2-Fluorophenyl)ureido)phenyl)-1-oxoisoindolin-2-yl)-3-methyl butanoic acid]	10 to 50
CC(C)[C@@H](C(=O)O)N1Cc2ccc(-c3ccc(NC(=O)c4ccccc4Cl)cc3)cc2C1=O [Example 132, (S)-2-(6-(4-(2-Chlorobenzamido)phenyl)-1-oxoisoindolin-2-yl)-3-methyl butanoic acid]	10 to 50
CCCCc1ccc(C(=O)Nc2ccc(-c3ccc4c(c3)C(=O)N([C@H](C(=O)O)C(C)C)C4)cc2)cc1 [Example 164, (S)-2-(6-(4-(4-Butylbenzamido)phenyl)-1-oxoisoindolin-2-yl)-3-methylbutanoic acid]	> 50
CC(C)[C@@H](C(=O)O)N1Cc2ccc(-c3ccc(NC(=O)c4ccc(C(F)(F)F)c(F)c4)cc3)cc2C1=O [Example 196, (S)-2-(6-(4-(3-Fluoro-4-(trifluoromethyl)benzamido)phenyl)-1-oxoisoindolin-2-yl)-3-methylbutanoic acid]	> 50
COc1ccc(C(=O)Nc2ccc(-c3ccc4c(c3)C(=O)N([C@H](C(=O)O)C(C)C)C4)cc2)cc1 [Example 104, (S)-2-(6-(4-(4-Methoxybenzamido)phenyl)-1-oxoisoindolin-2-yl)-3-methyl butanoic acid]	> 50
CC(C)[C@@H](C(=O)O)N1Cc2cc(-c3ccc(NC(=O)Nc4cccc(F)c4)cc3)ccc2C1=O [Example 229, (S)-2-(5-(4-(3-(3-Fluorophenyl)ureido)phenyl)-1-oxoisoindolin-2-yl)-3-methyl butanoic acid]	> 50
CCCCOc1ccc(C(=O)Nc2ccc(-c3ccc4c(c3)C(=O)N([C@H](C(=O)O)C(C)C)C4)cc2F)cc1 [Example 452, (S)-2-(6-(4-(4-Butoxybenzamido)-3-fluorophenyl)-1-oxoisoindolin-2-yl)-3-methyl butanoic acid]	> 50
CCCCOc1ccc(C(=O)Nc2ccc(-c3ccc4c(c3)C(=O)N([C@H](C(=O)O)C(C)C)C4)nc2)cc1 [Example 412, (S)-2-(6-(5-(4-Butoxybenzamido)pyridin-2-yl)-1-oxoisoindolin-2-yl)-3-methylbutanoic acid]	> 50
CC(C)[C@@H](C(=O)O)N1Cc2ccc(-c3ccc(NC(=O)c4ccc(F)cc4F)cc3)cc2C1=O [Example 110, (S)-2-(6-(4-(2,4-Difluorobenzamido)phenyl)-1-oxoisoindolin-2-yl)-3-methyl butanoic acid]	> 50
CC(C)[C@@H](C(=O)O)N1Cc2ccc(-c3ccc(NC(=O)c4cccnc4)cc3)cc2C1=O [Example 207, (S)-3-Methyl-2-(6-(4-(nicotinamido)phenyl)-1-oxoisoindolin-2-yl)butanoic acid]	> 50
CC(C)[C@@H](C(=O)O)N1Cc2cc(-c3ccc(NC(=O)Nc4ccccc4F)cc3)ccc2C1=O [Example 227, (S)-2-(5-(4-(3-(2-Fluorophenyl)ureido)phenyl)-1-oxoisoindolin-2-yl)-3-methyl butanoic acid]	> 50

Continued, values first:

inhibition at 1 µM [%]	Structure (SMILES)
> 50	O=C(Nc1ccc(-c2ccc3c(c2)C(=O)N(C2(C(=O)O)CC2)C3)cc1)c1ccc(C(F)(F)F)cc1 [Example 590, 1-(1-Oxo-6-(4-(4-(trifluoromethyl)benzamido)phenyl)isoindolin-2-yl)cyclo propane carboxylic acid]
10 to 50	Cc1ccc(NC(=S)Nc2ccc(-c3ccc4c(c3)CN([C@H](C(=O)O)C(C)C)C4=O)cc2)cc1 [Example 275, (S)-3-Methyl-2-(1-oxo-5-(4-(3-p-tolylthioureido)phenyl)isoindolin-2-yl)butanoic acid]
10 to 50	CC(C)[C@@H](C(=O)O)N1Cc2ccc(-c3ccc(NC(=O)c4ccc(C(C)(C)C)cc4)cc3C(F)(F)F)cc2C1=O [Example 424, (S)-2-(6-(4-(4-tert-Butylbenzamido)-2-(trifluoromethyl)phenyl)-1-oxoisoindolin-2-yl)-3-methylbutanoic acid]
> 50	CC(C)[C@@H](C(=O)O)N1Cc2ccc(-c3ccc(NC(=O)c4ccc(OC(F)(F)F)cc4)nn3)cc2C1=O [Example 502, (S)-3-Methyl-2-(1-oxo-6-(6-(4-(trifluoromethoxy)benzamido)pyridazin-3-yl)isoindolin-2-yl)butanoic acid]
10 to 50	O=C(O)CN1Cc2cc(-c3ccc(NC(=O)Nc4cccc(C(F)(F)F)c4)cc3)ccc2C1=O [Example 364, 2-(1-Oxo-5-(4-(3-(3-(trifluoromethyl)phenyl)ureido)phenyl)isoindolin-2-yl)acetic acid]
> 50	CC(C)[C@@H](C(=O)O)N1Cc2ccc(-c3ccc(NC(=O)c4cc(-c5ccc(F)cc5)no4)cn3)cc2C1=O [Example 639, (S)-2-(6-(5-(3-(4-Fluorophenyl)isoxazole-5-carboxamido)pyridin-2-yl)-1-oxoisoindolin-2-yl)-3-methylbutanoic acid]
> 50	CC(C)[C@@H](C(=O)O)N1Cc2cc(-c3ccc(NC(=O)Nc4ccc(F)c(F)c4)cc3)ccc2C1=O [Example 239, (S)-2-(5-(4-(3-(3,4-Difluorophenyl)ureido)phenyl)-1-oxoisoindolin-2-yl)-3-methylbutanoic acid]
10 to 50	CC(C)[C@@H](C(=O)O)N1Cc2cc(-c3ccc(NC(=O)c4ccc(C(C)(C)C)cc4)cc3)ccc2C1=O [Example 323, (S)-2-(5-(4-(4-tert-Butylbenzamido)phenyl)-1-oxoisoindolin-2-yl)-3-methyl butanoic acid]
> 50	C[C@@H](C(=O)O)N1Cc2ccc(-c3ccc(NC(=O)Nc4cccc(C(F)(F)F)c4)cc3)cc2C1=O [Example 337, (S)-2-(1-Oxo-6-(4-(3-(3-(trifluoromethyl)phenyl)ureido)phenyl)isoindolin-2-yl)propanoic acid]
> 50	CCC(C#N)(CC)c1ccc(C(=O)Nc2ccc(-c3ccc4c(c3)C(=O)N([C@H](C(=O)O)C(C)C)C4)cc2)cc1 [Example 633, (S)-2-(6-(4-(4-(3-Cyanopentan-3-yl)benzamido)phenyl)-1-oxoisoindolin-2-yl)-3-methylbutanoic acid]
10 to 50	O=C(Nc1ccc(-c2ccc3c(c2)CN([C@@H](Cc2ccccc2)C(=O)O)C3=O)cc1)Nc1cccc(C(F)(F)F)c1 [Example 382, (S)-2-(1-Oxo-5-(4-(3-(3-(trifluoromethyl)phenyl)ureido)phenyl)isoindolin-2-yl)-3-phenylpropanoic acid]
> 50	CC(C)[C@@H](C(=O)O)N1Cc2ccc(-c3ccc(NC(=O)c4nnc(-c5ccccc5)s4)cc3)cc2C1=O [Example 627, (S)-3-Methyl-2-(1-oxo-6-(4-(5-phenyl-1,3,4-thiadiazole-2-carboxamido)phenyl)isoindolin-2-yl)butanoic acid]
10 to 50	CC(C)[C@@H](C(=O)O)N1Cc2cc(-c3ccc(NC(=O)NC4CCCCC4)cc3)ccc2C1=O [Example 235, (S)-2-(5-(4-(3-Cyclohexylureido)phenyl)-1-oxoisoindolin-2-yl)-3-methyl butanoic acid]
> 50	Cc1ccc(NC(=O)Nc2ccc(-c3ccc4c(c3)C(=O)N([C@H](C(=O)O)C(C)C)C4)nc2)cc1C [Example 398, (S)-2-(6-(5-(3-(3,4-Dimethylphenyl)ureido)pyridin-2-yl)-1-oxoisoindolin-2-yl)-3-methylbutanoic acid]
10 to 50	O=C(O)CCN1Cc2cc(-c3ccc(NC(=O)Nc4cccc(C(F)(F)F)c4)cc3)ccc2C1=O [Example 379, 3-(1-Oxo-5-(4-(3-(3-(trifluoromethyl)phenyl)ureido)phenyl)isoindolin-2-yl)propanoic acid]
> 50	COc1cccc(NC(=O)Nc2ccc(-c3ccc4c(c3)CN([C@H](C(=O)O)C(C)C)C4=O)cc2)c1 [Example 251, (S)-2-(5-(4-(3-(3-Methoxyphenyl)ureido)phenyl)-1-oxoisoindolin-2-yl)-3-methylbutanoic acid]
